In patent US4001418A, “1'-Substituted-thioxanthene-9-spiro-4'-piperidine derivatives and the 10-oxides and 10,10-dioxides thereof” (priority 1974, dated 1977):

Experiments:
intravenous LD50 = conditions: mouse, in vivo
Description: The corresponding intravenous LD50 is 30 mg./kg. Other LD50 values for compounds of the invention when dosed intravenously are as follows: […]

oral LD50 in mice = conditions: mouse, in vivo

| SMILES | LD50 (intravenous LD50; mice, read-out: intravenous LD50) [mg/kg] | LD50 (oral LD50 in mice) [mg/kg] | LD50 (intravenous LD50; table 1, read-out: LD50) [mg/kg] |
| --- | --- | --- | --- |
| CN1CCC2(CC1)c1ccccc1Sc1c(O)cccc12 [4-hydroxy-1'-methylthioxanthene-9-spiro-4'-piperidine] | 30 | > 500 | – |
| C=CCN1CCC2(CC1)c1ccccc1Sc1c(O)cccc12 [Allyl 4-OH H H H S, 4-hydroxy-1'-allylthioxanthene-9-spiro-4'-piperidine] | – | – | 43 |
| CC(=O)Oc1cccc2c1Sc1cc(Cl)ccc1C21CCN(C)CC1 [Me 4-OAc H 6-Cl H S] | – | – | > 50 |
| CCCN1CCC2(CC1)c1ccccc1Sc1c(O)cccc12 [n-Pr 4-OH H H H S] | – | – | 35 |
